Earlier results as cited in patent US20170332633A1, “DOUBLE SALT IONIC LIQUIDS OF HERBICIDES” (THE BOARD OF TRUSTEES OF THE UNIVERSITY OF ALABAMA, priority 2014, published 2017).

System: rat

Row | SMILES | rat LD50 [mg/kg]
1 | COc1c(Cl)ccc(Cl)c1C(=O)O [Dicamba, 3,6-dichloro-2-methoxy benzoic acid] | 1039
2 | O=C(O)COc1ccc(Cl)cc1Cl [Example 2.4-D, 2,4-dichlorophenoxyacetic acid] | 639 to 764
